# Assay results taken from US20080026088A1, “Reduced isoalpha acid based protein kinase modulation cancer treatment” (Metaproteomics, LLC, priority 2006, published 2008).
# Where two headings read alike, the source gives them in different places. Marks after values point to notes of the source that are not given here.
# How the values were obtained:
# [1] = system: LPS-stimulated 3T3-L1 adipocytes; test: IL-6 secretion in LPS/3T3-L1 adipocytes; type: cell-based, murine; conditions: 100 ng LPS/ml, D5 3T3-L1 adipocytes
# [2] = system: LPS-treated 3T3-L1 adipocytes; test: Adiponectin secretion in LPS/3T3-L1 adipocytes; type: cell-based, murine; conditions: for Maximum adiponectin stimulation: 100 ng/ml LPS, D5 3T3-L1; for Concentration of maximum stimulation of adiponectin secretion: LPS/3T3-L1 adipocytes; for Emax: Mus musculus, 3T3-L1, at the concentration of maximum stimulation (c1), NS = not significantly different from the LPS control
# [3] = system: insulin-resistant 3T3-L1 adipocytes; test: Adiponectin secretion from insulin-resistant 3T3-L1 adipocytes; type: cell-based, murine; conditions: for Adiponectin/IL-6: ratio of Adiponectin Index to IL-6 Index, insulin-resistant 3T3-L1 adipocytes; for EC50: Mus musculus; for Maximum Adiponectin Secretion: estimated from the y-intercept of Hofstee plots; for dose at which maximal adiponectin secretion was observed: of four doses tested
# [4] = system: NF-kBp65 nuclear translocation; test: Nuclear NF-kBp65 (TransAM) in TNFα-treated 3T3-L1 adipocytes; type: cell-based, murine; conditions: for inhibition of nuclear translocation of NF-kBp65 / inhibition at 5 µg/mL: 5.0 μg/ml; for inhibition at […] / inhibition at 5 µg/mL: Mus musculus; for inhibition at […]: 2.5 μg/ml
# Experimental: Cell Culture and Treatment—Following differentiation 3T3-L1 adipocytes were maintained in post-differentiation medium for an additional 40 days. […] Hops derivatives and the positive control pioglitazone were tested at concentrations of 2.5, and 5.0 μg/ml. Test materials were added 1 hour prior to and nuclear extracts were prepared three and 24 hours following treatment with TNFα.
# ELISA—3T3-L1 adipocytes were maintained in growth media for 40 days following differentiation. Nuclear NF-kBp65 was determined using the TransAM™ NF-kB kit from Active Motif (Carlsbad, Calif.) was used with no modifications. Jurkat nuclear extracts provided in the kit were derived from cells cultured in medium supplemented with 50 ng/ml TPA (phorbol, 12-myristate, 13 acetate) and 0.5 μM calcium ionophore A23187 for two hours at 37° C. immediately prior to harvesting.
# Protein assay—Nuclear protein was quantified using the Active Motif Fluorescent Protein Quantification Kit.
# [5] = system: TNFα-treated 3T3-L1 adipocytes; test: Adiponectin secretion from TNFα-treated 3T3-L1 adipocytes; type: cell-based, murine
# Experimental: For two days, the cells were allowed grow to reach confluence. […] (3) 0.5 μM dexamethasone and (4) 10 μg/ml insulin (MDI medium). […] Adiponectin Assay—The adiponectin secreted into the medium was quantified using the Mouse Adiponectin Quantikine® Immunoassay kit with no modifications (R&D Systems, Minneapolis, Minn.). […] Statistical Calculations and Interpretation—All assays were preformed in duplicate. […] Differences among the doses and test agents were determined using the Student's t-test without correction for multiple comparisons; the nominal five percent probability of a type I error was selected.
# [6] = system: TNFα-treated 3T3-L1 adipocytes; test: IL-6 secretion from TNFα-treated 3T3-L1 adipocytes; type: cell-based, murine; conditions: for IL-6 Index: D5 3T3-L1 adipocytes, indexed to TNFα control
# [7] = Non-fasting serum glucose and insulin in db/db diabetic mice; type: in vivo, mouse; conditions: three consecutive days
# Experimental: The Model—Male, C57BLKS/J m^+/m^+Lepr^db (db/db) mice were used to assess the potential of the test materials to reduce fasting serum glucose or insulin concentrations. This strain of mice is resistant to leptin by virtue of the absence of a functioning leptin receptor.
# Testing Procedure—Test substances were administered daily by gavage in 0.2% Tween-80. Serum was collected from the retroorbital sinus before the initial dose and ninety minutes after the third and final dose. Non-fasting serum glucose was determined enzymatically by the mutarotase/glucose oxidase method and serum insulin was determined by a mouse specific ELISA.
# The Model—Male, C57BLKS/J m+/m+ Leprdb (db/db) mice were used to assess the potential of the test materials to reduce fasting serum glucose or insulin concentrations. This strain of mice is resistant to leptin by virtue of the absence of a functioning leptin receptor.
# Testing Procedure—Test substances were administered daily by gavage in 0.2% Tween-80. Serum was collected from the retroorbital sinus before the initial dose and ninety minutes after the fifth and final dose. Non-fasting serum glucose was determined enzymatically by the mutarotase/glucose oxidase method and serum insulin was determined by a mouse specific ELISA.
# 3T3-L1 adipocytes = test: Lipogenesis (Oil Red O / BODIPY) in 3T3-L1 adipocytes; type: cell-based, murine; conditions: 50 μg test material/ml
# Experimental: Prior to experiments, cells were cultured in DMEM containing 10% FBS-HI added 50 units penicillin/ml and 50 μg streptomycin/ml, and maintained in log phase prior to experimental setup. Cells were grown in a 5% CO2 humidified incubator at 37° C. Components of the pre-confluent medium included (1) 10% FBS/DMEM containing 4.5 g glucose/L; (2) 50 U/ml penicillin; and (3) 50 μg/ml streptomycin. Growth medium was made by adding 50 ml of heat inactivated FBS and 5 ml of penicillin/streptomycin to 500 ml DMEM. This medium was stored at 4° C. Before use, the medium was warmed to 37° C. in a water bath.
# 3T3-T1 cells were seeded at an initial density of 6×10^4 cells/cm^2 in 24-well plates. For two days, the cells were allowed grow to reach confluence. […]
# Oil Red O Staining—Triglyceride content of D6/D7-differentiated 3T3-L1 cells was estimated with Oil Red O according to the method of Kasturi and Joshi [Kasturi, R. and Joshi, V. C. […] The resulting stained oil droplets were extracted from the cells with isopropanol and quantified by spectrophotometric analysis at 540 nm (MEL312e BIO-KINETICS READER, Bio-Tek Instruments, Winooski, Vt.). […]
# [8] = Collagen induced rheumatoid arthritis murine model; type: in vivo, mouse; conditions: 10 mg/kg
# [9] = system: RL 95-2 endometrial cancer cells; test: Cancer cell proliferation, CyQuant; type: cell-based; conditions: Homo sapiens, RL95-2; 10 μg/ml, 72 hours; read-out: inhibition of cell proliferation relative to the DMSO solvent control
# Experimental: Methods—The inhibitory effects of test compounds of the present invention on cancer cell proliferation were examined in the RL 95-2 endometrial cancer cell model (an over expressor of AKT kinase), and in the HT-29 (constitutively expressing COX-2) and SW480 (constitutively expressing activated AKT kinase) colon cancer cell models. Briefly, the target cells were plated into 96 well tissue culture plates and allowed to grow until subconfluent. The cells were then treated for 72 hours with various amounts of the test compounds as described in Example 4 and relative cell proliferation determined by the CyQuant (Invitrogen, Carlsbad, Calif.) commercial fluorescence assay.
# [10] = system: A549 pulmonary epithelial cells; test: Mite dust allergen stimulated PGE2 biosynthesis in A549 cells; type: cell-based, human; conditions: 10 μg/ml, added 60 min before mite dust allergen 1000 ng/ml, 18 h
# From the text: Mite dust allergen isolation—Dermatophagoides farinae is the American house dust mite. D. farinae were raised on a 1:1 ratio of Purina Laboratory Chow (Ralston Purina, Co, St. Louis, Mo.) and Fleischmann's granulated dry yeast (Standard Brands, Inc. New York, N.Y.) at room temperature and 75% humidity. Live mites were aspirated from the culture container as they migrated from the medium, killed by freezing, desiccated and stored at 0% humidity. The allergenic component of the mite dust was extracted with water at ambient temperature. Five-hundred mg of mite powder were added to 5 ml of water (1:10 w/v) in a 15 ml conical centrifuge tube (VWR, Rochester, N.Y.), shaken for one minute and allowed to stand overnight at ambient temperature. The next day, the aqueous phase was filtered using a 0.2 μm disposable syringe filter (Nalgene, Rochester, N.Y.). The filtrate was termed mite dust allergen and used to test for induction of PGE2 biosynthesis in A549 pulmonary epithelial cells.
# Cell culture and treatment—The human airway epithelial cell line, A549 (American Type Culture Collection, Bethesda, Md.) was cultured and treated as previously described in Example 6. Mite allergen was added to the culture medium to achieve a final concentration of 1000 ng/ml. Eighteen hours later, the media were sampled for PGE2 determination.
# [11] = Mus musculus, 3T3-L1, 1.0 μg/ml, with 10 ng TNFα/ml, read-out: % Inhibition of IL-6 secretion
# [12] = 3T3-L1, 3 h, three hours post TNFα
compound,measurement,setting,value
CC(=O)Oc1ccccc1C(=O)O [Aspirin],Concentration providing the maximum inhibition of IL-6 secretion,[1],25.0 µg/mL
same,Maximum adiponectin stimulation,[2],failed to induce adiponectin secretion
same,Concentration of maximum stimulation of adiponectin secretion,[2],113 µg/mL
same,Emax,[2],< 7%
CC(C)CCC1=C(O)C(C(=O)C(C)C)=C(O)C(CCC(C)C)(CCC(C)C)C1=O [Hexahydrocolupulone (HHCL)],Adiponectin/IL-6,[3]; 50.0 μg/ml,0.60#
"COc1ccc2c(c1)c(CC(=O)O)c(C)n2C(=O)c1ccc(Cl)cc1 [Indomethacin, indomethacin]",Maximum adiponectin stimulation,[2],9%
CCc1ccc(CCOc2ccc(CC3SC(=O)NC3=O)cc2)nc1 (centres unmarked) [Pioglitazone],inhibition of nuclear translocation of NF-kBp65,[4]; 24 hours post TNFα,did not inhibit
same,inhibition of nuclear translocation of NF-kBp65,[4]; three hours post TNFα,did not inhibit
same,Concentration providing the maximum inhibition of IL-6 secretion,[1],5.00 µg/mL
same,Concentration of maximum adiponectin secretion,[5]; 10 ng TNFα/ml,1.25 µg/mL
same,maximum increase of adiponectin secretion over the TNFα control,[5]; 10 ng TNFα/ml,80%
same,Adiponectin Index Observed,"[5]; 1.0 μg/ml, TNFα/3T3-L1 model, indexed to TNFα control (Table 26)",1.80
same,Concentration of maximum adiponectin secretion,"[5]; Table 16, 10 ng TNFα/ml",1.25 µg/mL
same,Adiponectin Index,"[5]; Table 16, maximum over four doses, 10 ng TNFα/ml",1.47
same,Maximum adiponectin stimulation,[2],12%
same,Concentration of maximum stimulation of adiponectin secretion,[2],1.25 µg/mL
same,Emax,[2],12%
Cc1c(C)c2c(c(C)c1O)CCC(C)(COc1ccc(CC3SC(=O)NC3=O)cc1)O2 (centres unmarked) [Troglitazone],Concentration providing the maximum inhibition of IL-6 secretion,[1],10.0 µg/mL
same,Concentration of maximum adiponectin secretion,[5]; 10 ng TNFα/ml,0.625 µg/mL
same,maximum increase of adiponectin secretion over the TNFα control,[5]; 10 ng TNFα/ml,51%
same,Maximum adiponectin stimulation,[2],15%
same,Concentration of maximum stimulation of adiponectin secretion,[2],0.625 µg/mL
same,Emax,[2],15%
same,Adiponectin/IL-6,[3]; 5.0 μg/ml,1.12
same,EC50,"[3]; 3T3-L1, half maximal adiponectin secretion, estimated from the slope of Hofstee plots, insulin-resistant 3T3-L1 cells, read-out: Test Material at Half Maximal Secretion",0.085 µg/mL
same,EC50,"[3]; 3T3-L1, slope of modified Hofstee plot, read-out: concentration required for half maximal adiponectin secretion",0.085 µg/mL
same,Maximum Adiponectin Secretion,[3]; insulin-resistant 3T3-L1 cells,2.29 Fold relative to control
same,Maximum adiponectin secretion estimated from the y-intercept,[3]; modified Hofstee plot,2.29 fold
same,inhibition at 1 µg/mL,"[6]; Mus musculus, 3T3-L1, 1 μg/ml, 10 ng TNFα/ml, read-out: inhibition of IL-6 secretion relative to the controls",34%
same,inhibition at 1 µg/mL,[6]; [11],34%
"CC(C)CCC1=C(O)C(C(=O)C(C)C)=C(O)C(CCC(C)C)(CCC(C)C)C1=O [hexahydro colupulone, hexahydrocolupulone]",Maximum Adiponectin Secretion,[3]; insulin-resistant 3T3-L1 cells,1.83 Fold relative to control
same,dose at which maximal adiponectin secretion was observed,[3],12.5 µg/mL
same,concentration required for half maximal adiponectin secretion,[3]; slope of modified Hofstee plot,3.2 µg/mL
CC(C)Cc1ccc(C(C)C(=O)O)cc1 (centres unmarked) [ibuprofen],Concentration providing the maximum inhibition of IL-6 secretion,[1],0.625 µg/mL
same,Maximum adiponectin stimulation,[2],22%
same,Concentration of maximum stimulation of adiponectin secretion,[2],0.625 µg/mL
same,Emax,[2],22%
"CN(C)C(=N)N=C(N)N [metformin, Metformin]",reduction in serum insulin,[7],17%
same,IL-6 Index,"[6]; 1.0 μg/ml, with 10 ng TNFα/ml",0.91
same,IL-6 Index,"[6]; 5.0 μg/ml, with 10 ng TNFα/ml",0.96
same,IL-6 Index,"[6]; 10 μg/ml, with 10 ng TNFα/ml",0.78
same,IL-6 Index,"[6]; 50 μg/ml, with 10 ng TNFα/ml",0.78
same,inhibition at 1 µg/mL,[6]; [11],9%
same,inhibition at 5 µg/mL,"[6]; Mus musculus, 3T3-L1, 5.0 μg/ml, with 10 ng TNFα/ml",4%
same,inhibition at 10 µg/mL,"[6]; Mus musculus, 3T3-L1, 10 μg/ml, with 10 ng TNFα/ml",22%
same,inhibition at 50 µg/mL,"[6]; Mus musculus, 3T3-L1, 50 μg/ml, with 10 ng TNFα/ml",22%
same,lipogenic index (observed),3T3-L1 adipocytes,0.79
C[C@]12C=CC(=O)C=C1CC[C@@H]1[C@@H]2[C@@H](O)C[C@@]2(C)[C@H]1CC[C@]2(O)C(=O)CO [prednisolone],days with significant reduction of arthritic index,[8],30 to 42 days
O=C(O)c1ccccc1O [salicylic acid],Concentration providing the maximum inhibition of IL-6 secretion,[1],50.0 µg/mL
same,Maximum adiponectin stimulation,[2],failed to induce adiponectin secretion
same,Concentration of maximum stimulation of adiponectin secretion,[2],173 µg/mL
same,Emax,[2],< 7%
COc1cc(O)c(CC=C(C)C)c(O)c1C(=O)/C=C/c1ccc(O)cc1 [xanthohumol],inhibition at 10 µg/mL,[9],> 50%
same,inhibition at […],[4]; [12],6.9%
same,inhibition at 5 µg/mL,[4]; [12],15.6%
same,inhibition at […],"[4]; 3T3-L1, 24 hours post TNFα",8%
same,inhibition at 5 µg/mL,"[4]; 3T3-L1, 24 hours post TNFα",13.4%
same,dose at which maximal adiponectin secretion was observed,[3],1.25 µg/mL
Beta acids,Percent PGE2 Inhibition,[10],83%
